Source: PubChem BioAssay AID1949 (Southern Research Institute, 2009)
In brackets after ≈: the same amount, converted by molar mass. Records with an inconclusive call do not appear. Activity calls are given as the source filed them. The rule behind the calls is not given here.

Test system: M. tuberculosis H37Rv growth inhibition
Test: Confirmatory growth inhibition assay against Mycobacterium tuberculosis H37Rv, potency (AID 1949);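 note: bacteria grown 7 days with compound before Alamar blue readout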

CCCCn1c(=N)n(CC(O)COc2cccc(C)c2)c2ccccc21 (centres undefined)
IC50: 6.05 µg/mL (≈ 17.1 µM)

COc1ccc(-c2[nH]c(-c3ccc([N+](=O)[O-])cc3)nc2-c2ccccc2)cc1
IC50: 2.33 µg/mL (≈ 6.27 µM)

O=C(OCc1c(F)cccc1Cl)c1cc2ccccc2oc1=O
IC50: > 50 µg/mL (inactive)

Cc1ccc(NC(=O)c2ccc(N3CCN(C)CC3)c([N+](=O)[O-])c2)cc1Cl
IC50: 2.22 µg/mL (≈ 5.71 µM)

Cc1ccc(OCCN2CCN(c3nc(NCc4ccccc4)c4ccccc4n3)CC2)cc1
IC50: 1.42 µg/mL (≈ 3.13 µM)

COc1ccccc1C1CC(=O)C2=C(C1)NC(C)=C(C(=O)OC1CCCC1)C2c1ccc(O)cc1 (centres undefined)
IC50: 4.74 µg/mL (≈ 10 µM)

CCOC(=O)CCc1c(C)c(C#N)c2[nH]c3ccccc3n2c1=O
IC50: < 0.1 µg/mL

CCN(CC)c1ccc(NC(=O)C23CC4CC(CC(C4)C2)C3)cc1
IC50: > 50 µg/mL (inactive)

CCOC(=O)c1c2c(n(C)c1CN(CC)CC)C(=O)C(=O)c1ccc(Br)cc1-2
IC50: 0.17 µg/mL (≈ 0.38 µM)

Cc1ccc2nc(SCc3ccc4ccccc4c3)[nH]c2c1
IC50: 11 µg/mL (≈ 36 µM)

O=C(Nc1ccc(N2CCN(Cc3ccccc3F)CC2)cc1)c1ccc([N+](=O)[O-])o1
IC50: 0.28 µg/mL (≈ 0.66 µM)

O=C1NN=C2C1=NC1(CCCCC1)Cc1ccccc12
IC50: 0.1 µg/mL (≈ 0.374 µM)

COc1ccc(-c2csc(-c3ccc(OC)c(OC)c3)n2)cc1C
IC50: < 0.1 µg/mL

Cc1ccc(OCC(=O)c2ccc(F)cc2)cc1C
IC50: 2.46 µg/mL (≈ 9.52 µM)

O=C(CSc1n[nH]c(-c2ccc(Cl)cc2)n1)Nc1ccc(F)c(Cl)c1
IC50: 39 µg/mL (≈ 98.2 µM)

CC1=CC(C)(C)Nc2ccc(OC(=O)c3cccs3)cc21
IC50: 3.02 µg/mL (≈ 10.1 µM)

O=C(NCCC1=CCCCC1)Nc1ccc([N+](=O)[O-])cc1
IC50: 11.6 µg/mL (≈ 40 µM)

O=C(Nc1ccc(Cl)c(Cl)c1)c1ccc(Cl)cc1Cl
IC50: 5.19 µg/mL (≈ 15.5 µM)

CC(C)(C)c1ccc(C(=O)Nc2nccs2)cc1Br
IC50: 0.37 µg/mL (≈ 1.09 µM)

O=C(CCc1ccccc1)NC(=S)Nc1ccc(N2CCCCC2)cc1
IC50: 0.27 µg/mL (≈ 0.735 µM)

COC(=O)CSc1nnc(-c2ccc(C)cc2)o1
IC50: 0.15 µg/mL (≈ 0.568 µM)

COc1cc(NC(=O)c2ccc(Br)o2)ccc1NC(=O)c1ccccc1Cl
IC50: 6.8 µg/mL (≈ 15.1 µM)

COc1ccc(C(C)(C)C)cc1NC(=S)Nc1ccc(Cl)c(Cl)c1
IC50: 1.43 µg/mL (≈ 3.73 µM)

CCOC(=O)COc1ccc(OCc2ccccc2)cc1
IC50: 1.21 µg/mL (≈ 4.23 µM)

Cc1ccc(NC(CC(=O)c2ccc([N+](=O)[O-])cc2)c2ccccc2)cc1 (centres undefined)
IC50: 49.2 µg/mL (≈ 136 µM)

CCOC(=O)COc1ccc2ccccc2c1/C=C(\C)[N+](=O)[O-]
IC50: 0.5 µg/mL (≈ 1.59 µM)

c1ccc(CNCc2cn(-c3ccccc3)nc2-c2ccncc2)cc1
IC50: 16.5 µg/mL (≈ 48.5 µM)

CCN(CC)c1ccc(NC(=S)NCCc2ccc(OC)c(OC)c2)cc1
IC50: 1.68 µg/mL (≈ 4.33 µM)

CC1=CC(C)(C)N2C(=O)C3(Nc4ccccc4S3)c3cc(C)cc1c32 (centres undefined)
IC50: 16.9 µg/mL (≈ 48.6 µM)

CCC(=O)Oc1ccc(C(=O)Nc2cc3oc4ccccc4c3cc2OC)cc1
IC50: 1.46 µg/mL (≈ 3.75 µM)

CCn1c2ccc(F)cc2c2nc3ccccc3nc21
IC50: 6.92 µg/mL (≈ 26.1 µM)

Cc1ccc2c(C)nc(Nc3nc(CSc4nc5ccccc5s4)cc(=O)[nH]3)nc2c1
IC50: 0.38 µg/mL (≈ 0.851 µM)

CCn1cc(C(=O)O)c(=O)c2cc(F)c(N3CCN(C(=S)Nc4ccc(Cl)cc4)CC3)cc21
IC50: 24.1 µg/mL (≈ 49.3 µM)

CC(C)(C)OC(=O)CS(=O)c1ccc(S(=O)(=O)C(F)(F)F)cc1[N+](=O)[O-] (centres undefined)
IC50: 2.14 µg/mL (≈ 5.13 µM)

CCOc1cc(CNC(C)C23CC4CC(CC(C4)C2)C3)cc(Cl)c1OCC(=O)NC(C)(C)C (centres undefined)
IC50: 3.06 µg/mL (≈ 6.41 µM)

O=C(NC(=S)Nc1cccc(C(F)(F)F)c1)c1cccs1
IC50: 2.39 µg/mL (≈ 7.23 µM)

COC(=O)c1ccc2nc(C)cc(Nc3ccc(OCc4ccccc4)cc3)c2c1
IC50: 1.2 µg/mL (≈ 3.01 µM)

COc1ccc(Nc2nc(-c3ccccn3)cs2)c(OC)c1
IC50: < 0.1 µg/mL

Cc1cc(C)c(C(=O)/C=C/c2cccc([N+](=O)[O-])c2)cc1C
IC50: 0.36 µg/mL (≈ 1.22 µM)

O=C(CC12CC3CC(CC(C3)C1)C2)NC(=S)Nc1cccc(Br)c1
IC50: > 50 µg/mL (inactive)

O=[N+]([O-])c1ccc(O)c(-c2nc(-c3cccs3)c(-c3cccs3)[nH]2)c1
IC50: 97 µg/mL (≈ 263 µM)

O=C(Oc1ccccc1)c1ccc(S(=O)(=O)N2CCCCC2)cc1
IC50: 0.73 µg/mL (≈ 2.11 µM)

O=C(Nc1cccc(Cl)c1)Nc1ccccc1OC(F)(F)C(F)F
IC50: 0.19 µg/mL (≈ 0.524 µM)

Cc1ccc(NC(=O)C(C)NS(=O)(=O)c2ccc(Cl)cc2)cc1Cl (centres undefined)
IC50: 2.85 µg/mL (≈ 7.36 µM)

CCOC(=O)C1CCCN(c2ncnc3c2cnn3-c2ccc(Cl)cc2)C1 (centres undefined)
IC50: 4.21 µg/mL (≈ 10.9 µM)

O=C(Nc1ccccc1OC(F)F)c1ccc([N+](=O)[O-])o1
IC50: 6.29 µg/mL (≈ 21.1 µM)

CCCOc1ccc(Nc2cc(C)nc3ccc(Cl)cc23)cc1
IC50: 0.74 µg/mL (≈ 2.26 µM)

COc1ccc(/C=C/c2nc3ccccc3c(=O)o2)cc1
IC50: 27.6 µg/mL (≈ 99 µM)

c1ccc(OCCCCn2cnc3ccccc32)cc1
IC50: 16 µg/mL (≈ 60.2 µM)

CCC(C)NCCCOc1ccc(Cl)c2ccccc12 (centres undefined)
IC50: 2.06 µg/mL (≈ 7.06 µM)

O=C(COc1cccc2ccccc12)c1ccc(Cl)cc1
IC50: 34 µg/mL (≈ 115 µM)

COc1ccc(CNc2ccccc2O)cc1OC
IC50: 16.3 µg/mL (≈ 62.7 µM)

CC(C)CN1C(=O)c2cccc3c([N+](=O)[O-])ccc(c23)C1=O
IC50: > 50 µg/mL (inactive)

O=C(Nc1ccc(OC(F)(F)C(F)F)cc1)Nc1cccc(Cl)c1
IC50: 0.75 µg/mL (≈ 2.07 µM)

O=C(CSc1ccc(F)cc1)Nc1ccc2c(c1)OCCO2
IC50: 7.01 µg/mL (≈ 22 µM)

CC1CCC(C(=O)c2c(O)c3ccccc3oc2=O)CC1 (centres undefined)
IC50: > 50 µg/mL (inactive)

CC(C)OC(=O)C(C)Oc1ccc(C(=O)NCCc2ccccc2)cc1 (centres undefined)
IC50: 48.3 µg/mL (≈ 136 µM)

C=CCc1cc(C)ccc1OCCCCn1ccnc1
IC50: 1.45 µg/mL (≈ 5.36 µM)

CCOC(=O)c1ccc(NC(=O)c2ccc(C)s2)cc1
IC50: 2.22 µg/mL (≈ 7.67 µM)
